Assay results as given in PubChem BioAssay (NCI).
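Test compounds were applied to cells in 96-well plates for 48 hours at 5 doses. At the GI50, growth is halved. TGI marks complete inhibition of growth.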 Where a SMILES comes first, the peptide text is derived from it. [ ]: non-standard residue; d: D form. The star is where a group is joined. Bn2Val = CC(C)[C@@H](C(=O)*)N(Cc1ccccc1)Cc1ccccc1; NH(4-Cl-benzyl) = Clc1ccc(CN*)cc1; NMeV = CN[C@H](C(=O)O)C(C)C; dNMeA = CN[C@H](C)C(=O)O

How the values were obtained:
Assay in all cases: inhibition of tumour cell growth, NCI panel, 48 h
786-0 renal = system: 786-0 renal
HOP-62 NSCLC = system: HOP-62 NSCLC
MDA-N = system: MDA-N
OVCAR-3 ovarian = system: OVCAR-3 ovarian
OVCAR-8 ovarian = system: OVCAR-8 ovarian
PC-3 prostate = system: PC-3 prostate
RPMI-8226 leukemia = system: RPMI-8226 leukemia
RXF 393 renal = system: RXF 393 renal
SF-295 CNS = system: SF-295 CNS
SF-539 CNS = system: SF-539 CNS

| Compound | TGI (786-0 renal) | TGI (HOP-62 NSCLC) | TGI (MDA-N) | TGI (OVCAR-3 ovarian) | TGI (OVCAR-8 ovarian) | TGI (PC-3 prostate) | TGI (RPMI-8226 leukemia) | TGI (RXF 393 renal) | TGI (SF-295 CNS) | TGI (SF-539 CNS) | GI50 (MDA-N) | GI50 (RPMI-8226 leukemia) | GI50 (SF-295 CNS) |
| --- | --- | --- | --- | --- | --- | --- | --- | --- | --- | --- | --- | --- | --- |
| C#CCn1c(=O)c(C)cn(/C(=C\C(=O)OCC)C(=O)OCC)c1=O | > 100 µM | 39.2 µM | 22.2 µM | 18.4 µM | 13.2 µM | 27.6 µM | > 23.2 µM | 4.49 µM | 42.3 µM | 4.25 µM |  |  |  |
| O=C1CC(=O)n2cnc3cccc(c32)N1 | > 100 µM | > 100 µM | > 100 µM | > 100 µM | > 100 µM | > 100 µM | > 100 µM | > 100 µM | > 100 µM | > 100 µM |  |  |  |
| Cc1cc(C)c2c(c1)C(=O)/C(=C/c1ccccc1C(=O)O)C2 | > 100 µM | > 100 µM | > 100 µM | > 100 µM | > 100 µM | > 100 µM | > 100 µM | > 100 µM | > 100 µM | 89.3 µM |  |  |  |
| CCOC(=O)c1cc2c([N+](=O)[O-])c(N)ccc2s1 | > 100 µM | > 100 µM | > 100 µM | > 100 µM | > 100 µM | > 100 µM | > 100 µM | > 100 µM | > 100 µM | > 100 µM |  |  |  |
| CCc1cc2c(c3c1CCCC3=O)CC1(Cc3ccc(C(=O)OC)cc3C1)C2 (stereo not drawn) | > 100 µM | > 100 µM | > 100 µM | > 100 µM | > 100 µM | > 100 µM | 91 µM | > 100 µM | > 100 µM | > 100 µM |  |  |  |
| CC(Oc1ccccc1Cl)C(=O)NN1C(=O)CSC1c1ccccc1 (stereo not drawn) | > 100 µM | > 100 µM | > 100 µM | > 100 µM | > 100 µM | > 100 µM | > 100 µM | > 100 µM | > 100 µM | > 100 µM |  |  |  |
| Cc1cc2c([nH]c3ccccc32)c(O)c1-c1c(C)cc2c([nH]c3ccccc32)c1O | 26.6 µM | 31.5 µM | 27.8 µM | 29.3 µM | 30.4 µM | 25.9 µM | 18.5 µM | 23.1 µM | 33.4 µM | 31.7 µM | 14.7 µM | 3.85 µM | 17.4 µM |
| Nc1nc(Cl)cc(NC23CC4CC(CC(C4)C2)C3)n1 | > 100 µM | > 100 µM | > 100 µM | > 100 µM | > 100 µM | > 100 µM | > 100 µM | > 100 µM | > 100 µM | > 100 µM |  |  |  |
| CN(C)CCCNc1ccc2nnn3c4ccc(O)cc4c(=O)c1c23 | 16.9 µM | 17.6 µM | 19.9 µM | 23 µM | 17.6 µM | 17.5 µM | 29.6 µM | 1.16 µM | 18.7 µM | 19.6 µM |  |  |  |
| Cc1ccccc1N=C(N)Nc1ccccc1C | > 100 µM | > 100 µM | > 100 µM | > 100 µM | > 100 µM | > 100 µM | > 100 µM | > 100 µM | > 100 µM | > 100 µM |  |  |  |
| CC(C)[C@H](NC(=O)[C@H](C(C)C)N(Cc1ccccc1)Cc1ccccc1)C(=O)N(C)[C@H](C(=O)N1CCC[C@H]1C(=O)N(C)[C@H](C)C(=O)NCc1ccc(Cl)cc1)C(C)C (Bn2Val-V[NMeV]P[dNMeA]-{NH(4-Cl-benzyl)}) | 28.7 µM | 29.5 µM | 30.9 µM | 9.67 µM | > 100 µM | > 100 µM | > 100 µM | 6.27 µM | 11.1 µM | 62.3 µM |  |  |  |
| Nc1ccc(S(=O)(=O)Nc2nc3ccccc3nc2N2CCCCCC2)cc1 | > 100 µM | 52.6 µM | > 100 µM | 40.2 µM | > 100 µM | > 100 µM | 42.5 µM | 35.5 µM | 57.3 µM | 35.7 µM |  |  |  |
| O=C(c1cccs1)N1CCN(C(=O)c2cccs2)C1=S | 12.4 µM | 18.8 µM | 14.8 µM | 10.7 µM | 21.4 µM | 15.6 µM | > 19.7 µM | 10.5 µM | 30.5 µM | 4.84 µM |  |  |  |
| CC(=O)Nc1ccc(OC/C(N)=N/NC(=O)c2ccncc2)cc1 | > 100 µM | > 100 µM | > 100 µM | > 100 µM | > 100 µM | > 100 µM | > 100 µM | > 100 µM | > 100 µM | > 100 µM |  |  |  |
| c1ccc(/C(=N/Nc2ccncn2)c2ccccn2)cc1 | > 100 µM | > 100 µM | > 100 µM | 32.5 µM | 50.2 µM | > 100 µM | > 100 µM | > 100 µM | 64.9 µM | > 100 µM |  |  |  |
| CCCCCCCCCCCCCCCCCCNc1nc(=O)n(C2CC(O)C(COP(=O)(O)O)O2)cc1F (stereo not drawn) | > 100 µM | > 100 µM | > 100 µM | > 100 µM | > 100 µM | > 100 µM | > 100 µM | > 100 µM | > 100 µM | > 100 µM |  |  |  |
